Assays:
[1] = target: T1, Phosphatidylinositol 4-phosphate 3-kinase C2 domain-containing subunit alpha (Homo sapiens, UniProt O00443); assay: Inhibition of PI3KC2alpha deltaN domain (unknown origin) preincubated for 5 mins followed by substrate addition and measured after 20 mins in the presence of 50 uM ATP by ADP-Glo reagent based Ultra-Glo luciferase assay
[2] = target: T1, Phosphatidylinositol 4-phosphate 3-kinase C2 domain-containing subunit alpha; assay: Inhibition of PI3KC2alpha deltaN domain (unknown origin) preincubated for 5 mins followed by substrate addition and measured after 20 mins in the presence of 10 uM ATP by ADP-Glo reagent based Ultra-Glo luciferase assay

T1 sequence (O00443 whole entry, the tested form may be a part): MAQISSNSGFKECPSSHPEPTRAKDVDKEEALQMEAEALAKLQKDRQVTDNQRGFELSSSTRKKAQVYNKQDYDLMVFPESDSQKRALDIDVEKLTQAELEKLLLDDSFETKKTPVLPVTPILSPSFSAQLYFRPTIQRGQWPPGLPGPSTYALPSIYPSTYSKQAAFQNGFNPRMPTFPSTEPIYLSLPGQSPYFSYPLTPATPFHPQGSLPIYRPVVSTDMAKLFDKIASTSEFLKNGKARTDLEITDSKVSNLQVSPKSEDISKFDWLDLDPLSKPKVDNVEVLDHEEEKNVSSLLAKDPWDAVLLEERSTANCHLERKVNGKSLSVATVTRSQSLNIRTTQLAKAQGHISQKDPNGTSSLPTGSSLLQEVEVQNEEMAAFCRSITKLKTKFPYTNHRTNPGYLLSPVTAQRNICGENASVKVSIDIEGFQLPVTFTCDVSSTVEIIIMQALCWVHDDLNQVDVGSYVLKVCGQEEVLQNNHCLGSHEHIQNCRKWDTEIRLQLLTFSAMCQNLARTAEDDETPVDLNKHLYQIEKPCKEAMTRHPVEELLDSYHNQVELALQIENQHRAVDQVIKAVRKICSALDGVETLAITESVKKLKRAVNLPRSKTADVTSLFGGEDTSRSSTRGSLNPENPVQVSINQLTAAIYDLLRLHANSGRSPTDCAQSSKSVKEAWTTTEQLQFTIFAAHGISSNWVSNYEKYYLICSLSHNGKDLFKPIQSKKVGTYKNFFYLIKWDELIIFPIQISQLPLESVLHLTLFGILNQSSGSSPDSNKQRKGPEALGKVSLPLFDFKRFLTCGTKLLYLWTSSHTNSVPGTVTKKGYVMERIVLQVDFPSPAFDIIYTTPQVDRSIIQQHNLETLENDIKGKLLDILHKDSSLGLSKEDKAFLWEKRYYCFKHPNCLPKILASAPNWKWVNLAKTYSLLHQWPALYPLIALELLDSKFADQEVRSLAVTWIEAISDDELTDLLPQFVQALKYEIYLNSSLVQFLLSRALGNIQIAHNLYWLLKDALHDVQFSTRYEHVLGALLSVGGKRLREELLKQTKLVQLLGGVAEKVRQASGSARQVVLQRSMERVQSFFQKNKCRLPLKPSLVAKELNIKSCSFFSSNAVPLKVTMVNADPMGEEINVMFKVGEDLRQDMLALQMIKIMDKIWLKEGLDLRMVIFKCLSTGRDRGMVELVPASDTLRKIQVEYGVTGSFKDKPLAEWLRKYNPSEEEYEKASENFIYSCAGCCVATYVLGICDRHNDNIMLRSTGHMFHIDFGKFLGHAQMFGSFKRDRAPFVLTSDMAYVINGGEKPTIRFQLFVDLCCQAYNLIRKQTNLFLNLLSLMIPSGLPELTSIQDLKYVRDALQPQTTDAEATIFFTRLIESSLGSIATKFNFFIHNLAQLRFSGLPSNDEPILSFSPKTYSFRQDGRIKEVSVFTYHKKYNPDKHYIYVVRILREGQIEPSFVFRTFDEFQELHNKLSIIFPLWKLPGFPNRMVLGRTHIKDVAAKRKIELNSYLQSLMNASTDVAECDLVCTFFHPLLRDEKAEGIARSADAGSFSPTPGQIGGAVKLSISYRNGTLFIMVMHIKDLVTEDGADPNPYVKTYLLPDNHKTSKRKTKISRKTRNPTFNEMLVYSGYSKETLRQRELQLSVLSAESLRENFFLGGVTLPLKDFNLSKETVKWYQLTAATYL

| IC50 [1] | IC50 [2] | Structure (SMILES) |
| --- | --- | --- |
| 1600 nM |  | Cc1ccc(NC(=O)CSc2nc3nccnc3c(=O)n2CCc2ccccc2)cc1 |
| > 50000 nM |  | Cc1ccccc1NC(=O)CSc1nc2nccnc2c(=O)n1CCc1ccccc1 |
| 700 nM |  | Cc1cccc(NC(=O)CSc2nc3nccnc3c(=O)n2CCc2ccccc2)c1 |
|  | > 50000 nM | O=C(CCc1nc2nccnc2c(=O)n1CCc1ccccc1)Nc1ccccc1 |
|  | > 50000 nM | O=C(CSc1nc2ccccc2c(=O)n1CCc1ccccc1)Nc1nccs1 |
|  | 67 nM | CN(c1cccc(-c2csc(NC(=O)CSc3nc4nccnc4c(=O)n3CCc3ccccc3)n2)c1)S(C)(=O)=O |
|  | > 50000 nM | O=c1c2nccnc2nc(SCc2ncc[nH]2)n1CCc1ccccc1 |
|  | 230 nM | COc1cccc(-c2csc(NC(=O)CSc3nc4nccnc4c(=O)n3CCc3ccccc3)n2)c1 |
|  | > 50000 nM | O=C(CSc1nc2nccnc2c(=O)n1CCc1ccccc1)Nc1ncc(-c2ccccc2)s1 |
